Assay results as given in paper PMC9037111, “Structure-based design, synthesis, and biological evaluation of novel piperine–resveratrol hybrids as antiproliferative agents targeting SIRT-2” (RSC Advances, 2021).
Like-named read-outs stand apart in the source and are kept apart here.

Experiments:
Test in all cases: cells
Parameters in all cases: species or system NCI-60 human tumour cell lines; NCI-60 one-dose screen at 10 uM, percent growth inhibition versus untreated control cells
IGROV1 = settings: Homo sapiens, IGROV-1, growth inhibition, one dose
SNB-75 = settings: Homo sapiens, SNB-75, growth inhibition, one dose
KM12 = settings: Homo sapiens, KM12, growth inhibition, one dose
MDA-MB-435 = settings: Homo sapiens, MDA-MB-435, growth inhibition, one dose
OVCAR-4 = settings: Homo sapiens, OVCAR-4, growth inhibition, one dose
SW-620 = settings: Homo sapiens, SW-620, growth inhibition, one dose
T-47D = settings: Homo sapiens, T47D, growth inhibition, one dose
SF-268 = settings: Homo sapiens, SF-268, growth inhibition, one dose
OVCAR-3 = settings: Homo sapiens, OVCAR-3, growth inhibition, one dose
SK-MEL-2 = settings: Homo sapiens, SK-MEL-2, growth inhibition, one dose
HS 578 T = settings: Homo sapiens, Hs-578T, growth inhibition, one dose
U251 = settings: Homo sapiens, U-251, growth inhibition, one dose
A549/ATCC = settings: Homo sapiens, A549, growth inhibition, one dose
HOP-92 = settings: Homo sapiens, HOP-92, growth inhibition, one dose
786-0 = settings: Homo sapiens, 786-0, growth inhibition, one dose
EKVX = settings: Homo sapiens, EKVX, growth inhibition, one dose
SN12C = settings: Homo sapiens, SN12C, growth inhibition, one dose
NCI/ADR-RES = settings: Homo sapiens, NCI/ADR-RES, growth inhibition, one dose
[1] = read-out: Growth% inhibition / 5d
[2] = read-out: Growth% inhibition / 5a
[3] = read-out: Growth% inhibition / 5b
[4] = read-out: Growth% inhibition / 5e
[5] = read-out: Growth% inhibition / 5h

Work on CN(C)c1ccc(C=NNC(=O)/C=C/C=C/c2ccc3c(c2)OCO3)cc1 (mixture of isomers) [5d, (2E,4E)-5-(Benzo[d][1,3]dioxol-5-yl)-N′-((E/Z)-4-(dimethylamino)-benzylidene)penta-2,4-dienehydrazide] yielded an inhibition at 10 µM (IGROV1; [1]) of 10.1%, an inhibition at 10 µM (SNB-75; [1]) of 25.7% and an inhibition at 10 µM (KM12; [1]) of 14.2%. It also gave an inhibition at 10 µM (MDA-MB-435; [1]) of 70.1%.

Work on O=C(/C=C/C=C/c1ccc2c(c1)OCO2)NN=Cc1ccc(O)cc1 [5a, (2E,4E)-5-(Benzo[d][1,3]dioxol-5-yl)-N′-((E,Z)-4-hydroxybenzylidene)penta-2,4-dienehydrazide] yielded an inhibition at 10 µM (IGROV1; [2]) of 24.7%, an inhibition at 10 µM (SNB-75; [2]) of 27% and an inhibition at 10 µM (OVCAR-4; [2]) of 12.7%. For the same compound, the inhibition at 10 µM (SW-620; [2]) was 19.8%, the inhibition at 10 µM (KM12; [2]) was 33.4% and the inhibition at 10 µM (T-47D; [2]) was 18.6%. It also gave an inhibition at 10 µM (SF-268; [2]) of 17.1% and an inhibition at 10 µM (MDA-MB-435; [2]) of 73%.

With O=C(/C=C/C=C/c1ccc2c(c1)OCO2)N/N=C/c1ccc(O)cc1O [5b, (2E,4E)-5-(Benzo[d][1,3]dioxol-5-yl)-N′-((E)-2,4-dihydroxybenzylidene)penta-2,4-dienehydrazide] the inhibition at 10 µM (OVCAR-3; [3]) was 90.3%, the inhibition at 10 µM (SK-MEL-2; [3]) was 47.2% and the inhibition at 10 µM (HS 578 T; [3]) was 29.8%. For the same compound, the inhibition at 10 µM (IGROV1; [3]) was 71.1%, the inhibition at 10 µM (SNB-75; [3]) was 36% and the inhibition at 10 µM (OVCAR-4; [3]) was 90.8%. It also gave an inhibition at 10 µM (U251; [3]) of 68.7%, an inhibition at 10 µM (SW-620; [3]) of 73.5% and an inhibition at 10 µM (A549/ATCC; [3]) of 63.9%. For the same compound, the inhibition at 10 µM (HOP-92; [3]) was 46.6%, the inhibition at 10 µM (KM12; [3]) was 76.6% and the inhibition at 10 µM (T-47D; [3]) was 76.1%. For the same compound, the inhibition at 10 µM (786-0; [3]) was 71%, the inhibition at 10 µM (EKVX; [3]) was 79.8% and the inhibition at 10 µM (SN12C; [3]) was 67.2%. It also gave an inhibition at 10 µM (SF-268; [3]) of 75.6%, an inhibition at 10 µM (MDA-MB-435; [3]) of 67.4% and an inhibition at 10 µM (NCI/ADR-RES; [3]) of 94.8%.

CCN(CC)c1ccc(/C=N/NC(=O)/C=C/C=C/c2ccc3c(c2)OCO3)c(O)c1 [5e, (2E,4E)-5-(Benzo[d][1,3]dioxol-5-yl)-N′-((E)-4-(diethylamino)-2-hydroxybenzylidene)penta-2,4-dienehydrazide] gave an inhibition at 10 µM (OVCAR-3; [4]) of 95.1%, an inhibition at 10 µM (SK-MEL-2; [4]) of 34.3% and an inhibition at 10 µM (HS 578 T; [4]) of 31.9%. The inhibition at 10 µM (IGROV1; [4]) was 61.8%, the inhibition at 10 µM (SNB-75; [4]) was 41.2% and the inhibition at 10 µM (OVCAR-4; [4]) was 84.7%. It also gave an inhibition at 10 µM (U251; [4]) of 56.8%, an inhibition at 10 µM (SW-620; [4]) of 67.7% and an inhibition at 10 µM (A549/ATCC; [4]) of 46.7%. The inhibition at 10 µM (HOP-92; [4]) was 51.6%, the inhibition at 10 µM (KM12; [4]) was 69.8% and the inhibition at 10 µM (T-47D; [4]) was 73.7%. It also gave an inhibition at 10 µM (786-0; [4]) of 52.8%, an inhibition at 10 µM (EKVX; [4]) of 47.8% and an inhibition at 10 µM (SN12C; [4]) of 45.9%. For the same compound, the inhibition at 10 µM (SF-268; [4]) was 66.3%, the inhibition at 10 µM (MDA-MB-435; [4]) was 51.1% and the inhibition at 10 µM (NCI/ADR-RES; [4]) was 82.5%.

For C/C(=N\NC(=O)/C=C/C=C/c1ccc2c(c1)OCO2)c1ccc(Br)cc1 [5h, (2E,4E)-5-(Benzo[d][1,3]dioxol-5-yl)-N′-((E)-1-(4-bromophenyl)ethylidene)penta-2,4-dienehydrazide], the inhibition at 10 µM (OVCAR-3; [5]) was 24.4%, the inhibition at 10 µM (SK-MEL-2; [5]) was 11% and the inhibition at 10 µM (HS 578 T; [5]) was 86.5%. It also gave an inhibition at 10 µM (IGROV1; [5]) of 29.7%, an inhibition at 10 µM (SNB-75; [5]) of 68.1% and an inhibition at 10 µM (OVCAR-4; [5]) of 65.2%. The inhibition at 10 µM (U251; [5]) was 16%, the inhibition at 10 µM (SW-620; [5]) was 25.4% and the inhibition at 10 µM (A549/ATCC; [5]) was 12.5%. The inhibition at 10 µM (HOP-92; [5]) was 11.5%, the inhibition at 10 µM (KM12; [5]) was 24.9% and the inhibition at 10 µM (T-47D; [5]) was 65%. For the same compound, the inhibition at 10 µM (786-0; [5]) was 14.6%, the inhibition at 10 µM (EKVX; [5]) was 25% and the inhibition at 10 µM (SN12C; [5]) was 12.4%. For the same compound, the inhibition at 10 µM (SF-268; [5]) was 32.5%, the inhibition at 10 µM (MDA-MB-435; [5]) was 13.6% and the inhibition at 10 µM (NCI/ADR-RES; [5]) was 33.9%.
